# In ChEMBL document CHEMBL3797172, “Structure Property Relationships of Carboxylic Acid Isosteres” (J Med Chem, 2016):
# Columns and labels:
# [1] = Effective permeability of compound assessed as membrane retention at pH 7.4 at 200 uM after 5 hrs by PAMPA relative to control; type: ADME; settings: pH 7.4, 5 h
# [2] = octanol/water, pH 7.4, 1 h
# [3] = Percentage unbound in human plasma at 5 uM after 6 hrs by equilibrium dialysis method; type: ADME, cell-free; settings: for Fu: 6 h, 5 µM
# physchem [4] = settings: aqueous phosphate buffer, pH 7.4
# [5] = Dissociation constant, pKa of the compound at 100 uM by capillary electrophoresis; type: physicochemical; settings: for pKa: 100 µM
# [6] = Effective permeability of compound at pH 7.4 at 200 uM after 5 hrs by PAMPA; type: ADME; settings: for Papp at 5 h, 200 µM: PAMPA, pH 7.4, read-out: Peff; for Peff: pampa, pH 7.4, 5 h, 200 µM, BLD = below limit of detection
# [7] = Apparent permeability of compound at pH 7.4 at 200 uM by PAMPA; type: physicochemical; settings: pH 7.4, 200 µM, BLD = below limit of detection
# physchem [8] = settings: 1-octanol/aqueous buffer, pH 7.4
# [9] = buffer, pH 7.4, 24 h, 200 µM
SMILES,R% [1] [%],logD [2],Fu [3] [%],"solubility kinetic at 24 h, 200 µM (physchem [4]) [µM]",also measured
O=C1CCC(O)=C1Cc1ccccc1,-8.8,-0.6,14.3,199,
O=C1NC(=O)C(Cc2ccccc2)S1 (stereo unspecified),5.5,1.07,3.4,200,
CN(C)S(=O)(=O)NC(=O)CCc1ccccc1,2.2,0.17,8.1,199,pKa [5]: 5.86
Oc1c(F)cc(Cc2ccccc2)cc1F,49,3.34,0.26,109,
O=S(=O)(Cc1ccccc1)c1ccccc1O,7.2,1.76,1.59,197,
CS(=O)(=O)NCCCc1ccccc1,8.1,1.42,37.27,≥ 200,pKa [5]: > 12
O=c1[nH]c(CCc2ccccc2)ns1,-0.7,1.66,1.17,200,
CC(=O)NOCCc1ccccc1,-2.9,1.18,64,200,"Papp at 5 h, 200 µM [6]: 4.6 ×10⁻⁶ cm/s"
CC(=O)N(O)CCc1ccccc1,1.1,1.52,37,≥ 200,
O=C1CCC(Cc2ccccc2)=C1O,1.5,1.85,16,195,
[O-][S+](Cc1ccccc1)c1ccccc1O (stereo unspecified),1.1,2.16,12,≥ 200,
O=c1c(O)c(Cc2ccccc2)c1=O,-13,-0.84,8.19,166,logPapp [7]: BLD; pKa [5]: < 2; Peff [6]: BLD
CC1=C(O)CC(Cc2ccccc2)C1=O (stereo unspecified),-5.1,,,> 200,"fraction unbound at 6 h, 5 µM [3]: 0.111; pKa at 100 µM [5]: 4.47; Papp at 5 h, 200 µM [6]: 0.26 ×10⁻⁶ cm/s; logD at 1 h (physchem [8]): -0.33"
O=C1C=C(O)CC1Cc1ccccc1 (stereo unspecified),-3,-0.7,7.96,195,
Oc1ccccc1SCc1ccccc1,,> 3.78,,,Kinetic_solubility [9]: ND(Unstable)
CS(=O)(=O)NC(=O)NCc1ccccc1,3,-1.23,31,198,
O=C1NC(=O)C(Cc2ccccc2)O1 (stereo unspecified),-0.6,-0.16,14,≥ 200,
O=C(CCc1ccccc1)NO,0.03,0.71,29,≥ 200,

SMILES,R% [1] [%],logD [2],Fu [3] [%],"solubility kinetic at 24 h, 200 µM (physchem [4]) [µM]",also measured
CONC(=O)CCc1ccccc1,5.3,1.16,68,≥ 200,
Oc1cc(Cc2ccccc2)on1,-11,0.46,0.1,≥ 200,
O=c1c(O)c(NCc2ccccc2)c1=O,-6.6,,6.45,≥ 200,pKa [5]: < 2
O=C1CC(c2ccccc2)C=C1O (stereo unspecified),-8.6,1.71,,192,
CS(=O)(=O)NC(=O)CCc1ccccc1,1.4,,12.8,200,
Oc1c(F)ccc(Cc2ccccc2)c1F,-32,3.56,0.52,149,
CC(=O)NC(=O)NCc1ccccc1,-3.3,1.42,77,≥ 200,pKa [5]: > 12
c1ccc(CCc2nnn[nH]2)cc1,4.7,-0.25,1.12,≥ 200,
O=P(O)(O)CCc1ccccc1,-2.7,,31,152,"Papp at 5 h, 200 µM [6]: 0.094 ×10⁻⁶ cm/s"
O=C1CC(=O)C(Cc2ccccc2)N1 (stereo unspecified),1.3,-0.35,,≥ 200,"Papp at 5 h, 200 µM [6]: 2.5 ×10⁻⁶ cm/s"
S=c1[nH]c(CCc2ccccc2)no1,-3.4,-0.25,0.65,≥ 200,
O=S([O-])CCc1ccccc1.[Na+],-6.8,-1.3,5,≥ 200,logPapp [7]: BLD; Peff [6]: BLD
O=C(O)CCc1ccccc1,-7,,9.5,111,
NS(=O)(=O)CCc1ccccc1,4.2,0.96,60.72,≥ 200,
O=S(=O)([O-])CCc1ccccc1.[Na+],-6.1,-1.45,0.31,≥ 200,pKa [5]: < 2
O=c1[nH]c(CCc2ccccc2)no1,-4,0.32,1.1,≥ 200,
O=[PH](O)CCc1ccccc1,-2.1,,8.86,128,
